Experimental data taken from ChEMBL document CHEMBL5579881, “Synthesis of the Corrected Structure Assigned to Clonorosin B, an Alkaloid Obtained from the Soil-derived Fungus Clonostachys rosea YRS-06” (J Nat Prod, 2024).
Activity calls are given as the source filed them. The calls are words filed in the database; no cut-off is given here.

Columns and labels:
Staphylococcus aureus [1] = assay: Antibacterial activity against methicillin-resistant Staphylococcus aureus AUS-RBWH-MRSA-02 assessed as inhibition of microbial growth at 0.01 to 30 uM after 24 hrs by spectrophotometric analysis; type: functional, organism-based; details: dose 0.01-30 µM
[2] = molecular target: ATP-dependent translocase ABCB1 (Homo sapiens, UniProt P08183); assay: Inhibition of P-gp in human SW620/AD300 cells assessed as reduction in doxorubicin IC50 at 5 uM incubated for 48 hrs by MTT assat; type: functional, cell-based; details: sw620/ad300, 48 h
ATP-dependent translocase ABCB1, sequence (P08183 whole entry): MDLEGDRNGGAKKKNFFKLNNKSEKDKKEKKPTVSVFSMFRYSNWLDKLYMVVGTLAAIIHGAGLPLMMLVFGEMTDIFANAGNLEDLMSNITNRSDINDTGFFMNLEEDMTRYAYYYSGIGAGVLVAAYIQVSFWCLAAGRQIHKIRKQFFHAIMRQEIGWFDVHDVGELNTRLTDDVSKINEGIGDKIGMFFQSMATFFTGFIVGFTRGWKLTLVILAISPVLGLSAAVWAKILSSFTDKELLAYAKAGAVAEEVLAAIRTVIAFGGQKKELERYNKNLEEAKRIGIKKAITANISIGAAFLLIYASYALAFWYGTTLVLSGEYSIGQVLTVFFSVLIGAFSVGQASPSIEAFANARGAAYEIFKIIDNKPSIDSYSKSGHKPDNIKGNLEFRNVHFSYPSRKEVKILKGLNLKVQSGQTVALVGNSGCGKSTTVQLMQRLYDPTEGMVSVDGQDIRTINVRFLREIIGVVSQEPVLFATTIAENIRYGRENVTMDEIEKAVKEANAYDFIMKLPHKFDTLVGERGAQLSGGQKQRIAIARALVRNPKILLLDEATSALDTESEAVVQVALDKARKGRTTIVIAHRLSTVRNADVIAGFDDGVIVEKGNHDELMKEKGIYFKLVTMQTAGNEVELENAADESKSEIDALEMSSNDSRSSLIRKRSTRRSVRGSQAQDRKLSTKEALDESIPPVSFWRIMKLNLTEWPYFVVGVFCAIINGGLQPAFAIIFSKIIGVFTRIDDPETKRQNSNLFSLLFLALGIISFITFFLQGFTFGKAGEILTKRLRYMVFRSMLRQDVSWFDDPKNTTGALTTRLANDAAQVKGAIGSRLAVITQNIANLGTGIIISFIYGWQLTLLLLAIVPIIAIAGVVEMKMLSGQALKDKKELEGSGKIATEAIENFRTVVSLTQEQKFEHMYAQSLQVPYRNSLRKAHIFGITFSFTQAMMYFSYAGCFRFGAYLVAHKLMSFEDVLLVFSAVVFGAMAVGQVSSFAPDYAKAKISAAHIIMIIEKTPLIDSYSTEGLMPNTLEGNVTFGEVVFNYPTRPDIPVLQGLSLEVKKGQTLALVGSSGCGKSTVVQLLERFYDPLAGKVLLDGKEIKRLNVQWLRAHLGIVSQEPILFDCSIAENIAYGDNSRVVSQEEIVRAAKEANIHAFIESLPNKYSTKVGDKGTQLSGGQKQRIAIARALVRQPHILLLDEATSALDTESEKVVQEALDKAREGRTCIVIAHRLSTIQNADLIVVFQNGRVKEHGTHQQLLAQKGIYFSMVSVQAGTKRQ

SW-620 = assay: Cytotoxicity against human SW620 cells assessed as growth inhibition at 0.01 to 30 uM incubated for 48 hrs by MTT assay; type: functional, cell-based; details: dose 0.01-30 µM
Staphylococcus aureus [3] = assay: Antibacterial activity against Staphylococcus aureus ATCC 25923 assessed as inhibition of microbial growth at 0.01 to 30 uM after 24 hrs by spectrophotometric analysis; type: functional, organism-based; details: dose 0.01-30 µM
Candida albicans = assay: Antifungal activity against Candida albicans ATCC 10231 assessed as inhibition of fungal growth at 0.01 to 30 uM after 24 hrs by spectrophotometric analysis; type: functional, organism-based; details: dose 0.01-30 µM
Escherichia coli = assay: Antibacterial activity against Escherichia coli ATCC 11775 assessed as inhibition of microbial growth at 0.01 to 30 uM after 24 hrs by spectrophotometric analysis; type: functional, organism-based; details: dose 0.01-30 µM

For COc1cccc(Cn2cccc2C(=O)O)c1OC, the inhibition (Staphylococcus aureus [1]) was “inactive”, the “inhibition (INH)” value [2] was “Not Active” and the “growth inhibition (GI)” value (SW-620) was “inactive”. The inhibition (Staphylococcus aureus [3]) was “inactive”, the inhibition (Candida albicans) was “inactive” and the inhibition (Escherichia coli) was “inactive”.

For O=C(OCc1cccc2c1OCO2)c1ccc[nH]1, the inhibition (Staphylococcus aureus [1]) was “inactive”, the “inhibition (INH)” value [2] was “Not Active” and the “growth inhibition (GI)” value (SW-620) was “inactive”. The inhibition (Staphylococcus aureus [3]) was “inactive”, the inhibition (Candida albicans) was “inactive” and the inhibition (Escherichia coli) was “inactive”.

COc1ccc2c(c1OC)Cn1cccc1C2=O was tested, and the inhibition (Staphylococcus aureus [1]) was “inactive”, the “inhibition (INH)” value [2] was “Not Active” and the “growth inhibition (GI)” value (SW-620) was “inactive”. For the same compound, the inhibition (Staphylococcus aureus [3]) was “inactive”, the inhibition (Candida albicans) was “inactive” and the inhibition (Escherichia coli) was “inactive”.

In the case of COC(=O)c1cccn1Cc1cccc2c1OCO2, the inhibition (Staphylococcus aureus [1]) is reported as “inactive”, the “inhibition (INH)” value [2] is reported as “Not Active” and the “growth inhibition (GI)” value (SW-620) is reported as “inactive”. For the same compound, the inhibition (Staphylococcus aureus [3]) was “inactive”, the inhibition (Candida albicans) was “inactive” and the inhibition (Escherichia coli) was “inactive”.

In the case of O=C1c2ccc(O)c(O)c2Cn2cccc21, the inhibition (Staphylococcus aureus [1]) is reported as “inactive”, the “inhibition (INH)” value [2] is reported as “Not Active” and the “growth inhibition (GI)” value (SW-620) is reported as “inactive”. The inhibition (Staphylococcus aureus [3]) was “inactive”, the inhibition (Candida albicans) was “inactive” and the inhibition (Escherichia coli) was “inactive”.

For O=C1c2ccc3c(c2Cn2cccc21)OCO3, the inhibition (Staphylococcus aureus [1]) was “inactive”, the “inhibition (INH)” value [2] was “Not Active” and the “growth inhibition (GI)” value (SW-620) was “inactive”. The inhibition (Staphylococcus aureus [3]) was “inactive”, the inhibition (Candida albicans) was “inactive” and the inhibition (Escherichia coli) was “inactive”.

For COC(=O)c1cccn1Cc1cccc(OC)c1OC, the inhibition (Staphylococcus aureus [1]) was “inactive”, the “inhibition (INH)” value [2] was “Not Active” and the “growth inhibition (GI)” value (SW-620) was “inactive”. For the same compound, the inhibition (Staphylococcus aureus [3]) was “inactive”, the inhibition (Candida albicans) was “inactive” and the inhibition (Escherichia coli) was “inactive”.

O=C(O)c1cccn1Cc1cccc2c1OCO2 was tested, and the inhibition (Staphylococcus aureus [1]) was “inactive”, the “inhibition (INH)” value [2] was “Not Active” and the “growth inhibition (GI)” value (SW-620) was “inactive”. The inhibition (Staphylococcus aureus [3]) was “inactive”, the inhibition (Candida albicans) was “inactive” and the inhibition (Escherichia coli) was “inactive”.
